# Data taken from patent US20180256673A1, “METHODS FOR TREATING FUNGAL INFECTIONS” (priority 2015, published 2018).
# Where “and” joins values, the source holds several entries; their conditions need not be identical. Equal entries are not always repeated. Where two headings read alike, the source gives them in different places.
# What was measured:
# C. parapsilosis CP02 [1] = assay: Broth microdilution MIC (CLSI), Examples 3 and 4; settings: Lodderomyces parapsilosis, CP02, 24 h, read-out: Broth MIC
# Protocol: Antifungal susceptibility testing. Candida strains were cultured aerobically at 35° C. on SDA plates or in RPMI 1640 broth (pH 7.0). […] MIC assays were performed in triplicate.
# [2] = test system: C. glabrata vaginal isolates; assay: Susceptibility testing of VVC clinical isolates at pH 7 and 4 (CLSI M27-A3); assay type: cell-based, Candida glabrata; settings: for MIC90: Nakaseomyces glabratus, 21 isolates, read-out: MIC90
# C. albicans NRRL Y-477 [3] = assay type: cell-based, Candida albicans
# Protocol: (§1) Spontaneous mutant selection. […] Three individual colonies from each strain were used to start cultures in RPMI. […] One milliliter aliquots were spread onto SDA plates containing drug with sterile glass beads. Starting viable count was enumerated by triplicate plating of serial dilutions of the starting inoculum. […] Glycerol stocks of putative mutant colonies were stored at −80° C. […] Spontaneous mutation frequencies were calculated by dividing the number of resistant colonies on a given plate by the starting inoculum plated. A subset of mutants (weighted heavily towards those selected with CMP1) were then evaluated by MIC and sequencing of FKS gene hot spot regions.
# Candida albicans = assay: Broth microdilution of invasive fungal isolates (CLSI M27-A3/M38-A2); assay type: cell-based
# Candida tropicalis = assay: as above; assay type: cell-based
# Candida parapsilosis = assay: as above; assay type: cell-based
# C. krusei ATCC 6258 = assay: microbe, parasite or virus in culture; assay type: cell-based, Candida krusei; settings: for MIC: Pichia kudriavzevii
# [4] = test system: C. tropicalis vaginal isolates; assay: Susceptibility testing of VVC clinical isolates at pH 7 and 4 (CLSI M27-A3); assay type: cell-based; settings: Candida tropicalis, 13 isolates, read-out: MIC90
# [5] = test system: C. glabrata ATCC 90030, ATCC 2001; assay: microbe, parasite or virus in culture; assay type: cell-based, Candida glabrata; settings: for MIC fold-shift: WT to P20; for MIC: Nakaseomyces glabratus
# Candida orthopsilosis = assay: Broth microdilution of invasive fungal isolates (CLSI M27-A3/M38-A2); assay type: cell-based; settings: 10 isolates
# C. albicans NRRL Y-477 [6] = assay: Broth microdilution MIC (CLSI), Examples 3 and 4; settings: Candida albicans
# Protocol: Antifungal susceptibility testing. […] MIC assays were performed in triplicate.
# C. parapsilosis CP02 [7] = assay type: cell-based, Candida parapsilosis
# Protocol: as §1
# [8] = test system: azole-resistant Candida albicans (R357); assay: Disseminated infection model in neutropenic ICR mice, kidney fungal counts (Example 10, Tables 22-23); assay type: in vivo; settings: for reduction in colony counts compared to the vehicle control group: kidney, 20 mg/kg PO once
# [9] = SDA, minimum concentration to cleanly inhibit growth
structure (smiles),measurement,setting,value
"CC[C@H](C)C[C@H](C)CCCCCCCCC(=O)N[C@H]1C[C@@H](O)[C@@H](NCCN)NC(=O)[C@@H]2[C@@H](O)CCN2C(=O)[C@H]([C@H](O)CCN)NC(=O)[C@H]([C@H](O)[C@@H](O)c2ccc(O)cc2)NC(=O)[C@@H]2C[C@@H](O)CN2C(=O)[C@H]([C@@H](C)O)NC1=O [CAS, caspofungin]",MIC,C. parapsilosis CP02 [1],0.5 µg/mL
same,MIC90,"[2]; pH 4, 24 h",1 µg/mL
same,MIC90,"[2]; pH 4, 48 h",2 µg/mL
same,MIC90,"[2]; pH 7, 24 h",1 µg/mL
same,MIC90,"[2]; pH 7, 48 h",2 µg/mL
same,Median mutation frequency,C. albicans NRRL Y-477 [3],1.14E−08
same,Plate concentration,C. albicans NRRL Y-477 [3]; [9],0.25 µg/mL
same,Freq. (replicate mutation frequency),C. albicans NRRL Y-477 [3]; replicate plates 1-3,1.25E−08 and 1.14E−08 and 7.81E−09
same,Cumulative % of isolates inhibited at MIC 0.015 μg/mL,Candida albicans; 251 isolates,(31.9) %
same,Cumulative % of isolates inhibited at MIC 0.03 μg/mL,Candida albicans; 251 isolates,(85.7) %
same,Cumulative % of isolates inhibited at MIC 0.06 μg/mL,Candida albicans; 251 isolates,(99.2) %
same,Cumulative % of isolates inhibited at MIC 0.12 μg/mL,Candida albicans; 251 isolates,(100.0) %
same,Cumulative % of isolates inhibited at MIC ≤0.008 μg/mL,Candida albicans; 251 isolates,1.6%
same,Number of isolates inhibited at MIC 0.015 μg/mL,Candida albicans; 251 isolates,76
same,Number of isolates inhibited at MIC 0.03 μg/mL,Candida albicans; 251 isolates,135
same,Number of isolates inhibited at MIC 0.06 μg/mL,Candida albicans; 251 isolates,34
same,Number of isolates inhibited at MIC 0.12 μg/mL,Candida albicans; 251 isolates,2
same,Number of isolates inhibited at MIC ≤0.008 μg/mL,Candida albicans; 251 isolates,4
same,MIC50,"Candida albicans; Candida albicans, 251 isolates, read-out: MIC50",0.03 µg/mL
same,MIC90,"Candida albicans; Candida albicans, 251 isolates, read-out: MIC90",0.06 µg/mL
same,Cumulative % of isolates inhibited at MIC 0.015 μg/mL,Candida tropicalis; 51 isolates,(23.5) %
same,Cumulative % of isolates inhibited at MIC 0.03 μg/mL,Candida tropicalis; 51 isolates,(68.6) %
same,Cumulative % of isolates inhibited at MIC 0.06 μg/mL,Candida tropicalis; 51 isolates,(98.0) %
same,Cumulative % of isolates inhibited at MIC 0.12 μg/mL,Candida tropicalis; 51 isolates,(100.0) %
same,Number of isolates inhibited at MIC 0.015 μg/mL,Candida tropicalis; 51 isolates,12
same,Number of isolates inhibited at MIC 0.03 μg/mL,Candida tropicalis; 51 isolates,23
same,Number of isolates inhibited at MIC 0.06 μg/mL,Candida tropicalis; 51 isolates,15
same,Number of isolates inhibited at MIC 0.12 μg/mL,Candida tropicalis; 51 isolates,1
same,MIC50,"Candida tropicalis; Candida tropicalis, 51 isolates, read-out: MIC50",0.03 µg/mL
same,MIC90,"Candida tropicalis; Candida tropicalis, 51 isolates, read-out: MIC90",0.06 µg/mL
same,Cumulative % of isolates inhibited at MIC 0.25 μg/mL,Candida parapsilosis; 92 isolates,(33.7) %
same,Cumulative % of isolates inhibited at MIC 0.5 μg/mL,Candida parapsilosis; 92 isolates,(87.0) %
same,Cumulative % of isolates inhibited at MIC 1 μg/mL,Candida parapsilosis; 92 isolates,(98.9) %
same,Cumulative % of isolates inhibited at MIC 2 μg/mL,Candida parapsilosis; 92 isolates,(100.0) %
same,Number of isolates inhibited at MIC 0.25 μg/mL,Candida parapsilosis; 92 isolates,31
same,Number of isolates inhibited at MIC 0.5 μg/mL,Candida parapsilosis; 92 isolates,49
same,Number of isolates inhibited at MIC 1 μg/mL,Candida parapsilosis; 92 isolates,11
same,Number of isolates inhibited at MIC 2 μg/mL,Candida parapsilosis; 92 isolates,1
same,MIC50,"Candida parapsilosis; Lodderomyces parapsilosis, 92 isolates, read-out: MIC50",0.5 µg/mL
same,MIC90,"Candida parapsilosis; Lodderomyces parapsilosis, 92 isolates, read-out: MIC90",1 µg/mL
same,MIC fold-shift,"C. krusei ATCC 6258; ATCC 6258, WT to P20",2
same,MIC,C. krusei ATCC 6258; ATCC6258,0.5 µg/mL
same,MIC,"C. krusei ATCC 6258; ATCC6258, read-out: MIC P20",1 µg/mL
same,MIC90,"[4]; pH 4, 24 h",1 µg/mL
same,MIC90,"[4]; pH 4, 48 h",2 µg/mL
same,MIC90,"[4]; pH 7, 24 h",1 µg/mL
same,MIC90,"[4]; pH 7, 48 h",2 µg/mL
same,MIC fold-shift,[5]; ATCC 2001,8
same,MIC fold-shift,[5]; ATCC 90030,128
same,MIC,"[5]; 48 h, ATCC 90030 P20-1, selecting drug ANID, Fks2 HS1 D666I, 48 h read",2 µg/mL
same,MIC,"[5]; 48 h, ATCC 90030 P20-1, selecting drug CAS, Fks2 HS1 F659I D666Y, 48 h read",32 µg/mL
same,MIC,"[5]; ATCC 2001 P20-2, selecting drug ANID, Fks1 HS1 D632Y",2 µg/mL
same,MIC,"[5]; ATCC 2001 P20-2, selecting drug CAS",2 µg/mL
same,MIC,"[5]; ATCC 2001 P20-2, selecting drug CMP1",1 µg/mL
same,MIC,"[5]; ATCC 90030 P20-2, selecting drug CMP1",1 µg/mL
same,MIC,"[5]; read-out: MIC P20, ATCC 2001, total population after 20 passages with the selecting drug, MIC of selecting drug",2 µg/mL
same,MIC,"[5]; read-out: MIC P20, ATCC 90030, total population after 20 passages with the selecting drug, MIC of selecting drug",32 µg/mL
same,Cumulative % of isolates inhibited at MIC 0.06 μg/mL,Candida orthopsilosis,(10.0) %
same,Cumulative % of isolates inhibited at MIC 0.12 μg/mL,Candida orthopsilosis,(40.0) %
same,Cumulative % of isolates inhibited at MIC 0.25 μg/mL,Candida orthopsilosis,(70.0) %
same,Cumulative % of isolates inhibited at MIC 0.5 μg/mL,Candida orthopsilosis,(100.0) %
same,Number of isolates inhibited at MIC 0.06 μg/mL,Candida orthopsilosis,1
same,Number of isolates inhibited at MIC 0.12 μg/mL,Candida orthopsilosis,3
same,Number of isolates inhibited at MIC 0.25 μg/mL,Candida orthopsilosis,3
same,Number of isolates inhibited at MIC 0.5 μg/mL,Candida orthopsilosis,3
same,MIC50,"Candida orthopsilosis; Lodderomyces orthopsilosis, read-out: MIC50",0.25 µg/mL
same,MIC90,"Candida orthopsilosis; Lodderomyces orthopsilosis, read-out: MIC90",0.5 µg/mL
same,MIC,C. albicans NRRL Y-477 [6]; NRRLY477,0.5 µg/mL
same,MIC,"C. albicans NRRL Y-477 [6]; NRRLY477, 24 h, read-out: Broth MIC",0.25 µg/mL
same,Median mutation frequency,C. parapsilosis CP02 [7],<1.04E−08
same,Plate concentration,C. parapsilosis CP02 [7]; [9],1 µg/mL
same,Freq. (replicate mutation frequency),C. parapsilosis CP02 [7]; replicate plates 1-3,<1.04E−08 (2×) and <9.62E−09
"OC(Cn1cncn1)(Cn1cncn1)c1ccc(F)cc1F [FLU, fluconazole]",Number of isolates at MIC 2 μg/mL,"[2]; 21 VVC isolates, 24 h, pH 4",5
same,Number of isolates at MIC 4 μg/mL,"[2]; 21 VVC isolates, 24 h, pH 4",3
same,Number of isolates at MIC ≥4 μg/mL,"[2]; 21 VVC isolates, 24 h, pH 4",13
same,Number of isolates at MIC 0.5 μg/mL,"[2]; 21 VVC isolates, 24 h, pH 7",4
same,Number of isolates at MIC 1 μg/mL,"[2]; 21 VVC isolates, 24 h, pH 7",2
same,Number of isolates at MIC 2 μg/mL,"[2]; 21 VVC isolates, 24 h, pH 7",5
same,Number of isolates at MIC 4 μg/mL,"[2]; 21 VVC isolates, 24 h, pH 7",2
same,Number of isolates at MIC ≥4 μg/mL,"[2]; 21 VVC isolates, 24 h, pH 7",8
same,Number of isolates at MIC 2 μg/mL,"[2]; 21 VVC isolates, 48 h, pH 4",1
same,Number of isolates at MIC 4 μg/mL,"[2]; 21 VVC isolates, 48 h, pH 4",2
same,Number of isolates at MIC ≥4 μg/mL,"[2]; 21 VVC isolates, 48 h, pH 4",18
same,Number of isolates at MIC 1 μg/mL,"[2]; 21 VVC isolates, 48 h, pH 7",3
same,Number of isolates at MIC 2 μg/mL,"[2]; 21 VVC isolates, 48 h, pH 7",4
same,Number of isolates at MIC 4 μg/mL,"[2]; 21 VVC isolates, 48 h, pH 7",2
same,Number of isolates at MIC ≥4 μg/mL,"[2]; 21 VVC isolates, 48 h, pH 7",12
same,MIC90,"[2]; pH 4, 24 h",64 µg/mL
same,MIC90,"[2]; pH 4, 48 h",> 64 µg/mL
same,MIC90,"[2]; pH 7, 24 h",16 µg/mL
same,MIC90,"[2]; pH 7, 48 h",> 64 µg/mL
same,% of isolates with fluconazole resistance,Candida albicans; CLSI breakpoints,2.0%
same,% of isolates with fluconazole resistance,Candida tropicalis; CLSI breakpoints,2.0%
same,% of isolates with fluconazole resistance,Candida parapsilosis; CLSI breakpoints,4.3%
same,"antimicrobial effect versus vehicle (one-way ANOVA, Dunnett's test)","[8]; 48 and 72 hr after infection, Compound 1 3, 10, 30 mg/kg IP, amphotericin B 1 and 3 mg/kg IV, fluconazole 20 mg/kg PO",not significant
same,reduction in colony counts compared to the vehicle control group,[8]; 48 hr after infection,51%
same,reduction in colony counts compared to the vehicle control group,[8]; 72 hr after infection,84%
same,MIC90,"[4]; pH 4, 24 h",8 µg/mL
same,MIC90,"[4]; pH 4, 48 h",> 64 µg/mL
same,MIC90,"[4]; pH 7, 24 h",2 µg/mL
same,MIC90,"[4]; pH 7, 48 h",64 µg/mL
